# In patent publication US4803209A, “Substituted 2,3-diphenyl-1,2-dihydroquinoxalines” (International Minerals & Chemical Corp., priority 1987, dated 1989):
# Where two headings read alike, the source gives them in different places.
# Columns and labels:
# kidney cell monolayer = assay: Toxicity to cultured kidney cell monolayer in the in vitro anticoccidial test; assay type: cell-based, chick; set-up: key: T: toxic (inhibited kidney cell monolayer formation); details: 3 days
# Procedure: For in vitro screen tests, Hubbard X Hubbard chicks were maintained on drug-free starter diets in brooders in a coccidia-free room. Water was available ad libitum. At 2-3 weeks of age, 3-6 chicks were sacrificed by decapitation and bled. All tissue culture preparation, propagation and test steps were carried out using strict aseptic techniques. Kidney cells next were combined in a single sterile tube and evenly dispersed by agitation. An appropriate dilution (usually 1/10X to 1/25X) was counted microscopically in a hemocytometer and the cell suspension diluted in 500 ml sterile bottles to 200,000 to 250,000 cells/ml of growth medium. Multiwell tissue culture plates (Falcon No. 3008 or Costar No. 3524) were employed in all in vitro screen tests. Immediately after preparation of the kidney cell suspension, each of the 24 wells of 20 to 60 multiwell plates was inoculated with 1 ml of cells using a sterile syringe-type continuous pipettor (Cornwall). Plates then were incubated at once in a 5% CO2 incubator at 39° C. and ≥80% humidity. At about 24 hours one plate was removed and briefly examined for monolayer initiation under phase microscopy at 200X. At 40-48 hours monolayer growth was well initiated and satisfactory for initiation of drug tests. At this time attached cells were spreading and putting out arm-like projections in many areas of each well. The medium on plates which would not be used for drug tests at this time was replaced with prewarmed EBSS plus antibiotics, and these plates were returned to the incubator until time of use 24 to 48 hours later. The latter step was incorporated to remove debris and toxins from the young cell monolayers and also delay monolayer growth until initiation of drug tests. For each test compound an estimated 10 mg of test compound was placed in a 15×150 mm disposable screw-cap test tube (Belco No. 2009-16150). In a typical test employing 25 multiwell plates, tubes containing test compounds were set up and four drops of dimethylsulfoxide (DMSO) were added to each tube. Next 10 ml sterile distilled water was added to each tube and the tubes were capped tightly and mixed by agitation. Primary compound solutions containing about 1000 ppm test compound were serially diluted in disposable tubes (Falcon No. 2051) containing 1/2 strength growth medium, to yield the concentrations shown in Table 3 below. Sterile 1 cc disposable syringes (Tomac) were employed both for making dilutions and adding test compounds to plates. In setting up drug tests, five multiwell plates containing 48-96 hr monolayers were removed as a group from the incubator. The medium was quickly poured off one multiwell plate and 0.5 ml of the lowest dilution of test compound was added to each of two wells in the first column of wells, and an equal volume of a higher dilution of the same substance was added to the remaining two wells in the same column. This procedure was repeated with the next test substance using the wells in the second column on the plate. Dilutions of the remaining test substances were placed in corresponding columns of the plate. After compounds had been added to the first set of five plates, 0.5 ml of a 2×10^5 /ml suspension of sporozoites was added to each well of each plate using a sterile continuous pipettor. To minimize the effects of exposing growth medium to the atmosphere, all additions were made rapidly and inoculated plates were immediately returned to the incubator. Three days after drug and sporozoite addition, plates were removed a few at a time from the incubator for enumeration of parasites. […] The medium was quickly discarded and counts made under phase microscopy at 200X of the total numbers of schizonts and […] per field in each of five random fields. The average number of parasites per field was then calculated. The results of the in vitro anticoccidial tests, which are given in Table 3 below, show the compounds to have toxic effects upon cultured cells.
# [1] = tested on: Eimeria tenella Eli Lilly Strain 65 (Lilly 65); assay: In vitro anticoccidial test in chick kidney cell monolayers; assay type: cell-based; details: 72 h, 3 days, read-out: % Inhibition of Coccidia
# [2] = Growth promotion and feed utilization in chicks; assay type: in vivo, chicks (broiler cockerels); details: for feed efficiency (% better or worse than control) / weight gain (% better or worse than control): 8 weeks
# Salmonella typhimurium = assay type: cell-based
# [3] = tested on: Streptococcus sp. 1 X A7 (Strep A7); assay type: cell-based
# [4] = tested on: Clostridium perfringens (Cp); assay type: cell-based; details: Anaerobic, 6 h, 37° C.
# [5] = tested on: E. coli strain 046 (E.C. 046); assay type: cell-based
# [6] = tested on: antibiotic resistant E. coli (E.C. 324); assay type: cell-based; details: Gram Neg., 6 h, 37° C., aerobic
# anaerobic bacteria = assay type: cell-based
# [7] = tested on: Bacteroides fragilis (Bf); assay: Antimicrobial growth inhibition, Bf; assay type: cell-based; details: Anaerobic, 6 h, 37° C.
# [8] = tested on: Streptococcus sp. 1 X C15 (Strep C15); assay type: cell-based
# [9] = experiment set 5, 75 ppm in feed
# [10] = experiment set 4, 50 ppm in feed
# [11] = experiment set 1, 75 ppm in feed
Compound,% Inhibition of Coccidia: T = toxic (kidney cell monolayer; 100 ppm),inhibition at 0.001 ppm [1],inhibition at 0.01 ppm [1],inhibition at 0.1 ppm [1],inhibition at 1 ppm [1],Growth of S.T. in the presence of the test compound (Salmonella typhimurium; 6.4 ppm),Growth of S.T. in the presence of the test compound (Salmonella typhimurium; 64 ppm),Growth of Strep A7 in the presence of the test compound ([3]; 6.4 ppm),Growth of Strep A7 in the presence of the test compound ([3]; 64 ppm),Growth of Cp in the presence of the test compound ([4]; 6.4 ppm),Growth of Cp in the presence of the test compound ([4]; 64 ppm),Growth of E.C. 046 in the presence of the test compound ([5]; 6.4 ppm),Growth of E.C. 046 in the presence of the test compound ([5]; 64 ppm),Growth of E.C. 324 in the presence of the test compound ([6]; 6.4 ppm),Growth of E.C. 324 in the presence of the test compound ([6]; 64 ppm),% Inhibition of Coccidia: T = toxic (kidney cell monolayer; 10.0 ppm),Growth of Bf in the presence of the test compound ([7]; 6.4 ppm),Growth of Bf in the presence of the test compound ([7]; 64 ppm),Growth of Strep C15 in the presence of the test compound ([8]; 6.4 ppm),Growth of Strep C15 in the presence of the test compound ([8]; 64 ppm),further results
"Oc1ccc(Cl)cc1C1=Nc2ccccc2NC1c1cc(Cl)ccc1O (centres unmarked) [Example 5, 2,3-di(2-hydroxy-5-chlorophenyl)-1,2-dihydroquinoxaline]",T,1%,0%,6%,31%,,,,,,,,,,,,,,,,inhibition at 10 ppm ([1]; 10.0 ppm): 100%
"Oc1ccc(Cl)cc1C1=Nc2cc(Cl)c(Cl)cc2NC1c1cc(Cl)ccc1O (centres unmarked) [Example 1, 2,3-Di(2-hydroxy-5-chlorophenyl)-6-7-dichloro-1,2-dihydroquinoxaline]",T,53%,67%,61%,98%,+,+,+,+,-,-,+,+,+,+,T,-,-,+,+,"feed efficiency (% better or worse than control) [2, 9]: 13%; weight gain (% better or worse than control) [2, 9]: 6%; growth promotion / feed efficiency ([2]; in vivo): found to improve both weight gain and feed efficiency; activity against anaerobic bacteria (anaerobic bacteria): possessed activity against both anaerobic microorganisms"
"COc1ccc(C2=Nc3cc(C)c(C)cc3NC2c2ccc(OC)cc2O)c(O)c1 (centres unmarked) [Example 8, 2,3-di(2-hydroxy-4-methoxyphenyl)-6,7-dimethyl-1,2-dihydroquinoxaline]",T,0%,9%,12%,99%,,,,,,,,,,,T,,,,,
"Oc1ccccc1C1=Nc2cc(Cl)c(Cl)cc2NC1c1ccccc1O (centres unmarked) [Example 2, 2,3-di(2-hydroxyphenyl)-6,7-dichloro-1,2-dihydroquinoxaline]",T,42%,71%,89%,100%,,,,,,,,,,,T,,,,,
Polymyxin,,,,,,-,-,+,-,+,+,-,-,-,-,,+,-,-,-,"feed efficiency (% better or worse than control) [2, 10]: 6%; weight gain (% better or worse than control) [2, 10]: -3%"
CCC[C@@H]1C[C@@H](C(=O)N[C@@H]([C@H]2O[C@H](SC)[C@H](O)[C@@H](O)[C@H]2O)[C@@H](C)O)N(C)C1 [Lincomycin],,,,,,+,+,-,-,+,+,+,+,+,+,,-,-,-,-,"feed efficiency (% better or worse than control) [2, 11]: 12%; weight gain (% better or worse than control) [2, 11]: 20%"
